Drawing on ChEMBL document CHEMBL1250451, “Mechanistic insights into a Ca2+-dependent family of alpha-mannosidases in a human gut symbiont” (Nat Chem Biol, 2010), this text covers Activity for four compounds.

Calls of active or inactive are those of the source. No cut-off for these calls is given here.

What all share (assay type): protein assay
Test [1] has as its target T1, Glycoside hydrolase family 92 (BT_3962) (Bacteroides thetaiotaomicron) (UniProt Q8A0Q9).
T1 sequence (whole entry): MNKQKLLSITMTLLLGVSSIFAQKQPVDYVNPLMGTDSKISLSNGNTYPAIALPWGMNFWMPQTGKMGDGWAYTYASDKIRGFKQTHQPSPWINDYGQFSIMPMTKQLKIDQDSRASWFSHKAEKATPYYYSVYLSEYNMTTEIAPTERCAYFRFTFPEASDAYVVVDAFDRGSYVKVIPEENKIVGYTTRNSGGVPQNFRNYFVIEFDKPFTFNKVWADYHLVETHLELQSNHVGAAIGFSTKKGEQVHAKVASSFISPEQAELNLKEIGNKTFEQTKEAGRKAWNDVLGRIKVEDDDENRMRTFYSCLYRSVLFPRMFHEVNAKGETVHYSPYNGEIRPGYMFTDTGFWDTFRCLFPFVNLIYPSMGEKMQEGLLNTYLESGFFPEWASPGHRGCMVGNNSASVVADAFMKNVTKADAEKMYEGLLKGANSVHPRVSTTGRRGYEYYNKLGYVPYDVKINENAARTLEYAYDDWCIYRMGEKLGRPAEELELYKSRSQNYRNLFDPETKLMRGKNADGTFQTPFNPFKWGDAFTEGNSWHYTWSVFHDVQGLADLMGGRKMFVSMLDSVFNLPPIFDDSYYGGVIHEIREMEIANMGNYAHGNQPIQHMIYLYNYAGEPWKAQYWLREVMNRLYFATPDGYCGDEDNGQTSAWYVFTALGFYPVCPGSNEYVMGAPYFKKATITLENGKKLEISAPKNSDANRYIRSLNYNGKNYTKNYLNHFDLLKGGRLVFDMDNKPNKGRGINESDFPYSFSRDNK
The test is described as follows: Activity of Bacteroides thetaiotaomicron GH92 alpha-mannosidase GH92 alpha-mannosidase 3962 assessed as mannose release at 1 mM after 16 hrs by HPLC relative to untreated control after 16 hrs by HPLC.

The target in test [2] is T2, Alpha-1,2-mannosidase (BT_1878) (Bacteroides thetaiotaomicron) (UniProt Q8A6K3).
T2 sequence (whole entry): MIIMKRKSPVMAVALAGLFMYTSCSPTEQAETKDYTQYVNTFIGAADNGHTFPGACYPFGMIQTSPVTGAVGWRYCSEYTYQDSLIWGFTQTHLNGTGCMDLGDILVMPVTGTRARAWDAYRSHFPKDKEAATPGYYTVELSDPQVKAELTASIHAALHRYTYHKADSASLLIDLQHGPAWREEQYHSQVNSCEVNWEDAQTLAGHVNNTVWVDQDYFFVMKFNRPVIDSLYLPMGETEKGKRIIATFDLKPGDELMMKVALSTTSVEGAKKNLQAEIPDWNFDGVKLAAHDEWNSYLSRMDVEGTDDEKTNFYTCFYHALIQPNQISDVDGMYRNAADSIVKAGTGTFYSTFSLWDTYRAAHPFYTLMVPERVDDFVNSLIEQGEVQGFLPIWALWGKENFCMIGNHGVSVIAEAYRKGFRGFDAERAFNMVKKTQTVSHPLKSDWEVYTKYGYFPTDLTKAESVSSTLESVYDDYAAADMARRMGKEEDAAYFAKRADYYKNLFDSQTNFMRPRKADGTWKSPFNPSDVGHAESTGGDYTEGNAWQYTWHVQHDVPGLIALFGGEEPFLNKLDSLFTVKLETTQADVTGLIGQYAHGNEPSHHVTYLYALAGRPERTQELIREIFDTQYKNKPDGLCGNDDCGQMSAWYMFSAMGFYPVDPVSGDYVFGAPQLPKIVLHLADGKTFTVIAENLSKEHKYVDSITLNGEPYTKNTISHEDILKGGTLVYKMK
The test is described as follows: Activity of Bacteroides thetaiotaomicron GH92 alpha-mannosidase GH92 alpha-mannosidase 1878 assessed as mannose release at 1 mM after 16 hrs by HPLC relative to untreated control after 16 hrs by HPLC.

The target of test [3] is T3, Alpha-1,2-mannosidase (BT_3990) (Bacteroides thetaiotaomicron) (UniProt Q8A0N1).
T3 sequence (whole entry): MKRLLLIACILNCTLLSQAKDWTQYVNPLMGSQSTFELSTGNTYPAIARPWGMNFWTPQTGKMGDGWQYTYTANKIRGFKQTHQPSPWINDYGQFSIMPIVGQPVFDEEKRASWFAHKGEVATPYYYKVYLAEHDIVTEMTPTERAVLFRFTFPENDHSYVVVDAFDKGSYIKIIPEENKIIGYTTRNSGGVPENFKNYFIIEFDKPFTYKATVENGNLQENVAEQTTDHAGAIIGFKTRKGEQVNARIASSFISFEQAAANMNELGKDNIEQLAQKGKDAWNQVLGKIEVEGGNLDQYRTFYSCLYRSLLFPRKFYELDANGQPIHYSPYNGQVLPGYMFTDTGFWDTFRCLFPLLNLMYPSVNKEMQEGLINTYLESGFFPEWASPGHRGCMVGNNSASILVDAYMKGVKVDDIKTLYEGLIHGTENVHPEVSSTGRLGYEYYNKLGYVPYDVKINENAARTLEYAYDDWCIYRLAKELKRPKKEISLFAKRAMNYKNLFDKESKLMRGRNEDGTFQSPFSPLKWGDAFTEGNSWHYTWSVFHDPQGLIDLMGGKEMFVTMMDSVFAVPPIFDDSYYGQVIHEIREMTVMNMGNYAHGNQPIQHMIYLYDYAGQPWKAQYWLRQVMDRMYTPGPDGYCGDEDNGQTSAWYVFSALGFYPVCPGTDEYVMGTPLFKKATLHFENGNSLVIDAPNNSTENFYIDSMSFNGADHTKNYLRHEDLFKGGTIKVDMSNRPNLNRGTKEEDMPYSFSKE
The test is described as follows: Activity of Bacteroides thetaiotaomicron GH92 alpha-mannosidase GH92 alpha-mannosidase 3990 assessed as mannose release at 1 mM after 16 hrs by HPLC relative to untreated control after 16 hrs by HPLC.

For the compound `OC[C@H]1O[C@H](O[C@H]2[C@@H](O)[C@H](O)[C@@H](CO)O[C@@H]2O)[C@@H](O)[C@@H](O)[C@@H]1O`, the Activity was found to be 100% in test [1], 4.5% in test [2] and 100% in test [3].

Consider `OC[C@H]1O[C@H](O[C@H]2[C@H](O)[C@H](O)[C@@H](O)O[C@@H]2CO)[C@@H](O)[C@@H](O)[C@@H]1O`, for which the Activity in test [1] was found to be 0.042%; in test [2] it was 3.6%; in test [3], 0.022%.

Turning to `OC[C@H]1O[C@H](OC[C@H]2O[C@H](O)[C@@H](O)[C@@H](O)[C@@H]2O)[C@@H](O)[C@@H](O)[C@@H]1O`, the Activity in test [1] amounted to 0.0031%; in test [2], 1.1%. Also, in test [3], the outcome was inactive.

Turning to `OC[C@H]1O[C@H](O[C@@H]2[C@H](O)[C@@H](O)O[C@H](CO)[C@H]2O)[C@@H](O)[C@@H](O)[C@@H]1O`, the result in test [1] was inactive. The Activity in test [3] came to 0.036%.
